Test results reported in patent US7723075B2, “Methods of screening for TRPM5 modulators” (The Queens's Medical Center, priority 2003, dated 2010).
pEC50, pIC50: −log10 of the molar value. One block for each molecule: values may come before it.

Legend:
[1] = molecular target: T1, TRPM5 (Homo sapiens, UniProt Q9NZQ8); assay: Combined patch-clamp and fura-2 recordings of TRPM5 currents after Ca2+ release, [Ca2+]i not buffered; format: cell-based
T1 construct: Human TRPM5 cDNA containing the complete ORF of the long splice version; expressed in transfected cells
T1 sequence (Q9NZQ8 1-1165): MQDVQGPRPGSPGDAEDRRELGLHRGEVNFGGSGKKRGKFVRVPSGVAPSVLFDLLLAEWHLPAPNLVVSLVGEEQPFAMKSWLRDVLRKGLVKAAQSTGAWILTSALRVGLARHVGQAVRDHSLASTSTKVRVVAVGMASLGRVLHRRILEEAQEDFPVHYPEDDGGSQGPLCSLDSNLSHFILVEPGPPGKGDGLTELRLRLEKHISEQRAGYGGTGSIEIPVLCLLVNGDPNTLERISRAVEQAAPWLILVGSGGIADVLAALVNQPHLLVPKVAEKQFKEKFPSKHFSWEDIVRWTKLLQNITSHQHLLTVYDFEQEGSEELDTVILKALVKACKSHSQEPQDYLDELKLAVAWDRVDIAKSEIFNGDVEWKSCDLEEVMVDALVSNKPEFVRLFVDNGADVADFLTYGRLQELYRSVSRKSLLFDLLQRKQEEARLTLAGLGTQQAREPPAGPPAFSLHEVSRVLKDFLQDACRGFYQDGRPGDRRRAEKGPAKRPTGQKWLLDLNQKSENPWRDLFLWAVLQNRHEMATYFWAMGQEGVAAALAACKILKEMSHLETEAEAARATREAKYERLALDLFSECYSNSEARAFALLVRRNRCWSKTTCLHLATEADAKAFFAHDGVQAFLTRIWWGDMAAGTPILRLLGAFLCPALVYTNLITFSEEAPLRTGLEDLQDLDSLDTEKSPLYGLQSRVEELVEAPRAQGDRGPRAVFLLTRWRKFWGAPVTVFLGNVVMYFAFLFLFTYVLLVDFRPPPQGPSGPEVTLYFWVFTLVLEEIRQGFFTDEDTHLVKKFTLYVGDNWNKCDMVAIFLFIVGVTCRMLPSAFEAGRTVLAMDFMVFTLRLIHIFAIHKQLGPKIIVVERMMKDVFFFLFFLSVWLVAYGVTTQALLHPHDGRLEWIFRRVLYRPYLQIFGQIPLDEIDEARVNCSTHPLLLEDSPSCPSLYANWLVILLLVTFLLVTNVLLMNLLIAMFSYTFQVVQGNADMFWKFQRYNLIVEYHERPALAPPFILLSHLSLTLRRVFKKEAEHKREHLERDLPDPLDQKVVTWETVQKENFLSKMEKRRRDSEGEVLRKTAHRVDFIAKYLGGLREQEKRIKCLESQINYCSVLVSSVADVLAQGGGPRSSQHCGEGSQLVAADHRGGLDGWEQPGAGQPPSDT
Source text: (§1) Cells grown on glass coverslips were transferred to the recording chamber and kept in a standard modified Ringer's solution of the following composition (in mM): NaCl 140, KCl 2.8, CaC12 1, MgC12 2, glucose 10, Hepes.NaOH 10, pH 7.2, with osmolarity typically ranging from 298-308 mOsm. Intracellular pipette-filling solutions contained (in MM): K-glutamate 120, NaCl 8, MgC12 1, K-BAPTA 10, HEPES.CsOH, pH 7.2 adjusted with KOH. In order to adjust free [Ca^2+]i, to the desired concentration appropriate amounts of CaC12 were added as calculated with WebMaxC v2.1 (available through Stanford University). In the case of fura-2 measurements intracellular K-BAPTA was replaced by 200 μM fura-2. Fura-2 is a calcium indicator (Handbook of Fluorescent Probes and Research Chemicals, 9th ed. Molecular Probes). […]
(§2) The cytosolic calcium concentration was monitored at a rate of 5 Hz with a photomultiplier-based system using a monochromatic light source tuned to excite fura-2 fluorescence at 360 and 390 nm for 20 ms each (TILL Photonics, Munich, Germany). Emission was detected at 450-550 run with a photomultiplier, whose analog signals were sampled and processed by X-Chart software (HEKA, Lambrecht, Germany). Fluorescence ratios were translated into free intracellular calcium concentration based on calibration parameters derived from patch-clamp experiments with calibrated calcium concentrations. […]

[2] = molecular target: T2, TRPM5 single channels (Homo sapiens, UniProt Q9NZQ8); assay: Single-channel recordings in inside-out patches from HEK-293 cells stably expressing TRPM5; format: biochemical; details: cytosolic side exposed to 300 nM Ca2+, n=5
T2 construct: Human TRPM5 cDNA containing the complete ORF of the long splice version; expressed in transfected cells
T2 sequence (Q9NZQ8 1-1165): T1 sequence (Q9NZQ8 1-1165)
Source text: FIG. 4A depicts studies in which the inside-out patches were pulled from HEK-293 cells stably expressing TRPM5 channels. To record single channels a ramp protocol of 4.5 s from −100 mV to +100 mV was given with no wait time in between ramps. Ramps that had no channel activity during Ca^2+ application ere used for leak correction. Data were acquired at 2.9 kHz filter setting and digitally filtered at 50 Hz for display purposes. […] The last panel is an example 1 s after stop of application and removal of Ca^2+. This patch had at least 7 channels. […] Records are representative of all 5 patches recorded this way. […]
Patch-clamp experiments were performed in the tight-seal whole-cell configuration at 21-25° C. […] Capacitive currents and series resistance were determined and corrected before each voltage ramp using the automatic capacitance compensation of the EPC-9. The low-resolution temporal development of membrane currents was assessed by extracting the current amplitude at −80 and +80 mV from individual ramp current records. Where applicable, statistical errors of averaged data are given as means±S.E.M. with n determinations and statistical significance was assessed by Student's t-test. […]
The single-channel properties of TRPM5 were analyzed in cell-free excised membrane patches in the inside-out configuration of the patch-clamp technique. […]

[3] = molecular target: TRPM4 (Homo sapiens, UniProt Q8TD43); assay: Dose-dependence of TRPM4 currents evoked by intracellular [Ca2+]i; format: cell-based
[4] = test system: endogenous TRPM5-like currents in INS-1 cells; assay: Whole-cell currents in INS-1 beta cells perfused with defined [Ca2+]i; format: cell-based, rat
Description: (§3) Patch-clamp experiments were performed in the tight-seal whole-cell configuration at 21-25° C. High-resolution current recordings were acquired by a computer-based patch-clamp amplifier system (EPC-9, HEKA, Lambrecht, Germany). Patch pipettes had resistances between 2-4 MS2 after filling with the standard intracellular solution. Immediately following establishment of the whole-cell configuration, voltage ramps of 50 ms duration spanning the voltage range of −100 to +100 mV were delivered from a holding potential of 0 mV at a rate of 0.5 Hz over a period of 300 to 600 seconds. All voltages were corrected for a liquid junction potential of 10 mV between external and internal solutions when using glutamate as intracellular anion. Currents were filtered at 2.9 kHz and digitized at […] intervals. Capacitive currents and series resistance were determined and corrected before each voltage ramp using the automatic capacitance compensation of the EPC-9. The low-resolution temporal development of membrane currents was assessed by extracting the current amplitude at −80 and +80 mV from individual ramp current records. Where applicable, statistical errors of averaged data are given as means±S.E.M. with n determinations and statistical significance was assessed by Student's t-test. For single channel measurements inside-out patches were pulled into a modified standard external solution that contained no Ca^2+ and had 1 mM Na-EDTA. To record single channels a ramp protocol of 4.5 s from −100 mV to +100 mV and digitized at […] was given with no wait time in between ramps. Ramps that had no channel activity during Ca^2+ application were used for leak correction and subtracted form all ramps acquired. Data collection was at 2.9 kHz filter setting and digitally filtered at 50 Hz for display purposes.
TRPM5 is found in another beta cell line, INS-1 (FIG. 5B). The INS-1 line was used to assess the electrophysiological features of TRPM5 in a native cellular context. Since the pancreatic beta-cell line INS-1 expressed TRPM5, the native TRPM5 currents in these cells was studied using the same experimental protocols that activated TRPM5 in the heterologous HEK-293 expression system (Examples 1-3). FIG. 5C illustrates that perfusing INS-1 cells with an intracellular solution that contained elevated levels of Ca^2+ (800 nM) induced a transient current, whose current-voltage relationship (FIG. 5D) was outwardly rectifying and closely resembled the current-voltage characteristics obtained for TRPM5 in the transfected HEK-293 cells. […]

[5] = molecular target: T1, TRPM5; assay: Whole-cell patch-clamp of TRPM5 currents in HEK-293 cells stably expressing TRPM5, [Ca2+]i buffered in pipette; format: cell-based; details: for Hill coefficient, inhibition of TRPM5: fit to inhibitory phase
Source text: Cells grown on glass coverslips were transferred to the recording chamber and kept in a standard modified Ringer's solution of the following composition (in mM): NaCl 140, KCl 2.8, CaC12 1, MgC12 2, glucose 10, Hepes.NaOH 10, pH 7.2, with osmolarity typically ranging from 298-308 mOsm. Intracellular pipette-filling solutions contained (in MM): K-glutamate 120, NaCl 8, MgC12 1, K-BAPTA 10, HEPES.CsOH, pH 7.2 adjusted with KOH. In order to adjust free [Ca^2+]i, to the desired concentration appropriate amounts of CaC12 were added as calculated with WebMaxC v2.1 (available through Stanford University). In the case of fura-2 measurements intracellular K-BAPTA was replaced by 200 μM fura-2. Fura-2 is a calcium indicator (Handbook of Fluorescent Probes and Research Chemicals, 9th ed. Molecular Probes). Solution changes were performed by pressure ejection from a wide-tipped pipette. Thrombin (NaCl-based buffer) was purchased from Sigma.
Cells expressing TRPM5 were prepared as in Example 1. The cells were perfused with an internal solution in which the free Ca^2+ concentration was buffered to 500 nM with an appropriate mixture of BAPTA and CaC12. […] The activation kinetics of TRPM5 currents under these experimental conditions is characterized by a half-time to peak of −3 s, with the peak current itself at −10 s. The current inactivates similarly rapidly to basal levels with a half-time of —13 s.
as §3

[6] = test system: HEK-293 cells; assay: fura-2 measurement of [Ca2+]i in TRPM5-expressing HEK-293 cells; format: cell-based, human; details: thrombin 20 U/ml, n=5
Source text: as §1, §2

TRPM4, sequence (Q8TD43 whole entry, the tested form may be a part): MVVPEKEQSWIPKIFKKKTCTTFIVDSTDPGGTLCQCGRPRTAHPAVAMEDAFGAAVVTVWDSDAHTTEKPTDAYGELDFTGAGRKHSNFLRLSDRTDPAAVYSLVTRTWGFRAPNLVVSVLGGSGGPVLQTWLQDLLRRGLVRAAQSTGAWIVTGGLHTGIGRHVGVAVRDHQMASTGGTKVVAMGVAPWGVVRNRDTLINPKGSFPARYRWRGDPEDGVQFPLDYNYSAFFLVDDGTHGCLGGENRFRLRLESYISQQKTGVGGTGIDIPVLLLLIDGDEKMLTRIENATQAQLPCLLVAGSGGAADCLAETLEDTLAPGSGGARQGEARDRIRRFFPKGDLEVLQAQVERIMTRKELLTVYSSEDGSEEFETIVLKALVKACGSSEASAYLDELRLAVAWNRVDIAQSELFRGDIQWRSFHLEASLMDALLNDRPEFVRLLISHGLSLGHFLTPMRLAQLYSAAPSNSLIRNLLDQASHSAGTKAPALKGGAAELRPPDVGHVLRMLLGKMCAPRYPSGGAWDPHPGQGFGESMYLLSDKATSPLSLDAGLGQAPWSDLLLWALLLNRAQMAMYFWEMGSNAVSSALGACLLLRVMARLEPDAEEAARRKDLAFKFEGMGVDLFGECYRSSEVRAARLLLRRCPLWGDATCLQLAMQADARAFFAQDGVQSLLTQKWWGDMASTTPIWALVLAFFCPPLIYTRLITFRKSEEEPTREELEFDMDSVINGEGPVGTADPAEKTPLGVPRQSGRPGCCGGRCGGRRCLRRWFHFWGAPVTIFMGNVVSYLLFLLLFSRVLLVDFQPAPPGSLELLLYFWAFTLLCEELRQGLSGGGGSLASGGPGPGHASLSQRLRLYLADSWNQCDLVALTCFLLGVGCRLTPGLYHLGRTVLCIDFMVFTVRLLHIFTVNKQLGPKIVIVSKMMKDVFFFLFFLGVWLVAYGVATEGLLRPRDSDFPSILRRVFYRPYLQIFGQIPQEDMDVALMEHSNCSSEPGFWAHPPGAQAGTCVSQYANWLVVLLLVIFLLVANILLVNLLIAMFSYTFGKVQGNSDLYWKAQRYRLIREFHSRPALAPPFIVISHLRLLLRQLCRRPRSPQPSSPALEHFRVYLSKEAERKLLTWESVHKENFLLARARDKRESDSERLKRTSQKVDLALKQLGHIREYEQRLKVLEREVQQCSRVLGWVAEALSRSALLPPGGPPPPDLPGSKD

effect on TRPM5 activation by thrombin ([1]; 10 mM BAPTA in the pipette solution, n=6, data not shown): consistently suppressed TRPM5 activation
Molecule: O=C([O-])CN(CC(=O)[O-])c1ccccc1OCCOc1ccccc1N(CC(=O)[O-])CC(=O)[O-].[K+].[K+].[K+].[K+] [BAPTA]

average peak amplitude of TRPM5 inward currents ([5]; at −80 mV, [Ca2+]i of 1 μM, n=5): −440 pA | Hill coefficient, inhibition of TRPM5 [5]: −6 | Hill coefficient, inhibition of TRPM5 ([5]; listed as [Ca2+]i): 6 | Hill coefficient, activation of TRPM5 ([5]; fit to rising phase): 4 | pEC50 ([5]; whole-cell, HEK-293 expressing TRPM5, n=5-20, read-out: EC50 for activation of TRPM5 currents (rising phase)): 6.07 | pIC50 ([5]; whole-cell, HEK-293 expressing TRPM5, n=5-20, read-out: IC50 of the inhibitory phase of TRPM5 currents): 5.96
Molecule: [Ca+2] [[Ca^2+]i]
TRPM5 single-channel activity in inside-out patch [2]: activity of multiple channels was observed | pEC50 ([3]; data re-calculated by WebmaxC): 6.05 | Hill coefficient, TRPM4 currents ([3]; data re-calculated by WebmaxC): 3.6 | inhibition of TRPM4 activity at high [Ca2+]i ([3]; levels up to 1.3 μM, Ref. 9 and data not shown): without signs of inhibition | activation of endogenous TRPM5-like currents ([4]; 100 nM [Ca2+]i, n=3): neither 100 nM (n=3) nor 300 nM (n=3) activated any currents | activation of endogenous TRPM5-like currents ([4]; 300 nM [Ca2+]i, n=3): neither 100 nM (n=3) nor 300 nM (n=3) activated any currents | activation of endogenous TRPM5-like currents ([4]; 500 nM [Ca2+]i, n=3): a distinctive, transient TRPM5-like current was activated | activation of endogenous TRPM5-like currents ([4]; 800 nM [Ca2+]i, n=8): a distinctive, transient TRPM5-like current was activated

Molecule: Thrombin
[Ca2+]i signal on thrombin stimulation [6]: large Ca^2+-release transient | TRPM5 currents at +80 and −80 mV on thrombin stimulation ([1]; thrombin 20 U/ml, n=5): transient increase in inward and outward currents
